Measurements published in PMC9609767, “Radiosynthesis and Preclinical Evaluation of an ^18F-Labeled Triazolopyridopyrazine-Based Inhibitor for Neuroimaging of the Phosphodiesterase 2A (PDE2A)” (Pharmaceuticals, 2022).
“And” between values parts separate entries of the source, which are not always exact repeats. Equal entries are not always repeated. Where two headings read alike, the source gives them in different places.

Experiments:
rat PDE2A = molecular target: T1, rat PDE2A (Rattus norvegicus, UniProt Q01062); assay: In vitro autoradiography with rat brain cryosections; type: binding; details: co-incubation with 1 µM inhibitor
T1 construct: Frozen sagittal 12 µm brain sections obtained from female SPRD and male Wistar-Han rats; from tissue; host or cells: rat brain cryosections (female SPRD and male Wistar-Han rats)
T1 sequence (Q01062 1-928): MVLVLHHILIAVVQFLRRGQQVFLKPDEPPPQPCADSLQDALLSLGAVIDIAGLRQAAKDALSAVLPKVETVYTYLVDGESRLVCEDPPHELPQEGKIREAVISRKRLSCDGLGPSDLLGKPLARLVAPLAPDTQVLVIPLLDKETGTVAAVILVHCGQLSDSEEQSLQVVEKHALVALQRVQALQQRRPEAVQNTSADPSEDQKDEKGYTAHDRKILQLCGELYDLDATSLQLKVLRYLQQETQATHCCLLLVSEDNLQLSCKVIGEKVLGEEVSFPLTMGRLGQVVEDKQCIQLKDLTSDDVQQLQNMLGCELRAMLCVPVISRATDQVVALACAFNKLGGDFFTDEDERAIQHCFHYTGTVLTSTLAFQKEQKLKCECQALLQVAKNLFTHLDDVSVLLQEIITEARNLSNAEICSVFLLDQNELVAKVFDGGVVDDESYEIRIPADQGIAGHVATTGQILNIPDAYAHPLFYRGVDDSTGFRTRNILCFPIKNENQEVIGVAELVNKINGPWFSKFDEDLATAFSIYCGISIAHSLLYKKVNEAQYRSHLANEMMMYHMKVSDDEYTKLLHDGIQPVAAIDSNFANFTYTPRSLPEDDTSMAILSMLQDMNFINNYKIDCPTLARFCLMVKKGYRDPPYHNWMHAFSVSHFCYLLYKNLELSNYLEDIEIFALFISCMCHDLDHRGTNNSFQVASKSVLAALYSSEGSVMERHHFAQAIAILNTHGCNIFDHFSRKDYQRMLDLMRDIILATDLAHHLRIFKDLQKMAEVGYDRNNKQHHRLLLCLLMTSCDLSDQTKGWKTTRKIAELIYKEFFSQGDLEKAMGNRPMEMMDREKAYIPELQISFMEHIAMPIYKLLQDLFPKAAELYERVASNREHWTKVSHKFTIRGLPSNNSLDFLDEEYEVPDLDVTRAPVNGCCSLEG
Experimental: Frozen sagittal 12 µm brain sections obtained from female SPRD and male Wistar-Han rats (10–12 weeks old) were thawed, dried in a stream of cold air, and pre-incubated for 15 min with incubation buffer (50 mM TRIS-HCl, pH 7.4; supplemented with 1 mM MgCl2, 1 mM CaCl2, 2 mM KCl, and 2 U/mL Adenosine deaminase) at ambient temperature. Afterwards, the buffer was decanted and the cryosections dried again in a stream of cold air before covering with the radioligand in incubation buffer (~0.1 MBq [^18F]11/mL; Am at the time of the incubation ~10 GBq/µmol) for incubation at ambient temperature for 90 min.
The incubation was terminated by pouring off the incubation solution and washing the slides twice with ice-cold buffer (50 mM TRIS-HCl, pH 7.4/4 °C) for 2 min and rinsing by dipping in ice-cold demineralised water. Immediately afterwards, the sections were dried in a stream of cold air and exposed along with appropriate radioactive standards (1 µL of serial dilutions of the radioligand in incubation buffer, pipetted on a microscopic glass slide and air dried) to an ^18F-sensitive image plate for 120 min. Finally, the imaging plate was scanned at the highest possible resolution (pixel size 12.6 µm × 12.6 µm) in a phosphor imager (HD-CR 35; Duerr NDT GmbH, Bietigheim Bissingen, Germany) and the digital image analysed with an image analysis program (Aida Image Analyzer v. 4.26; Elysia-raytest GmbH, Straubenhardt, Germany).
For the determination of the protein concentration, four dried 12 µm cryosections were scraped from the microscopic glass slides, transferred in an Eppendorf tube and solubilised with 200 µL of demineralised water. The protein concentration of this solution was determined by a commercial assay (Pierce™ BCA Protein Assay Kit, Thermo Fisher Scientific, Schwerte, Germany). The area of the cryosections was determined during the analysis of the digitized autoradiographic images, and the volume was calculated by multiplying the area with the thickness of the slices. Finally, the protein concentration of the tissue was calculated (37 mg protein/g wet weight).

PDE2A [1] = details: cited from earlier work
human PDE2A = tested on: human PDE2A; parameters: method as in PMID 15555642; details: cited from earlier work
bovine PDE2A = tested on: bovine PDE2A; parameters: method as in PMID 15555642; details: cited from earlier work
PDE10A [2] = assay: Inhibitory potency against PDE10A; type: biochemical; details: PDE2A vs. PDE10A
PDE2A [3] = tested on: PDE2A; parameters: method as in earlier work; details: cited from earlier work
PDE10A [4] = tested on: PDE10A; parameters: method as in earlier work; details: read-out: IC50, PDE10A (PDE10A1); cited from earlier work

Structure (SMILES)	blocking of [18F]11 binding in rat brain sections (rat PDE2A)	IC50 (PDE2A [1]) [nM]	IC50 (human PDE2A) [nM]	IC50 (bovine PDE2A) [nM]	selectivity vs. PDE10A (PDE10A [2]) [fold]	IC50 (PDE2A [3]) [nM]	IC50 (PDE10A [4])
Cc1nc(-c2cnn(C)c2-c2ccc(C(F)(F)F)cn2)c2c(N3CCC3)ncnn12 [PF-05180999, reference compound]	completely blocked	1.6	–	–	–	–	–
COc1ccc(Cc2nn3c([C@@H](CCCc4ccccc4)[C@@H](C)O)nc(C)c3c(=O)[nH]2)cc1OC [BAY60-7550]	completely blocked	–	4.7	2	–	–	–
CCCC(O)c1ccc(F)c(-c2nnc3c(C)nc4ccc(C5CC5)nc4n23)c1 (centres unmarked) [Compound 11, 1-[3-(2-Cyclopropyl-6-methylpyrido[3,2-e][1,2,4]triazolo[4,3-a]pyrazin-9-yl)-4-fluorophenyl]butan-1-ol]	–	–	–	–	~1000	1.99	~2000 nM and 1910 nM
